Where a name gives a salt, the structure may show the parent alone. Read-outs that look alike come from different tables or passages of the source.
Legend:
[1] = pKa by potentiometric titration of the salt; format: physicochemical
[2] = tested on: β-lactamases produced by gram-positive organisms and by gram-negative organisms in classes I-V; test: Stability to the action of β-lactamases; format: biochemical; details: β-lactamases of S. aureus, B. cereus and gram-negative classes I-V (Richmond and Sykes)
[3] = tested on: gram-negative and gram-positive microorganisms; test: Antibacterial activity; format: cell-based; details: range of gram-negative and gram-positive microorganisms
β-lactamase enzymes = test: Inhibition of β-lactamase enzymes; format: biochemical, gram-positive and gram-negative bacteria
[4] = Stability in aqueous solution / on storage; format: physicochemical
[5] = Solubility of lithium clavulanate in aqueous lithium chloride; format: physicochemical; details: about 20° C., read-out: Solubility in mz/ml of lithium clavulanate (approximate)
Procedure: The eluate will normally contain the lithium salt, e.g. lithium chloride, at a concentration in the range 0.5 to 2.5M whereas, as indicated above, the salting out effect is most efficient at concentrations in the range 5M to 10 M. It is therefore preferred to concentrate the eluate, for example by evaporation in vacuo, e.g. by a factor of about 5. The solubility of lithium clavulanate at about 20° C. in various concentrations of aqueous lithium chloride is given in the following table: […]

[6] = Uptake of atmospheric water (hygroscopicity); format: physicochemical
Procedure: The solid was hygroscopic. It was ground in a pestle and mortar and allowed to take up atmospheric water at 18° C. After about 22% (w/w) of water was taken up, an equilibrium was reached.

`O=C(O)[C@H]1/C(=C/CO)O[C@@H]2CC(=O)N21` [calcium salt] showed a pKa ([1]; read-out: pKa value of the corresponding acid) of ~2.4.
In the case of `O=C(O)[C@H]1/C(=C/CO)O[C@@H]2CC(=O)N21` [clavulanic acid, (2R, 5R, Z)-3-(2-hydroxyethylidene)-7-oxo-4-oxa-1-azabicyclo[3,2,0]heptane-2-carboxylic acid], the “stability to the action of β-lactamases” value [2] is reported as “stable”, the antibacterial activity [3] is reported as “have antibacterial activity” and the “inhibition of class I β-lactamase enzymes” value (β-lactamase enzymes; a number of class I enzymes (e.g. Bacteroides fragilis, Proteus vulgaris, Proteus morganii, Proteus rettgeri, Enterobacter cloacae, Citrobacter freundii, Providencia species, Hafnia alvei)) is reported as “inhibited”. The “ability to inhibit β-lactamase enzymes” value (β-lactamase enzymes; enzymes of gram-positive organisms (S. aureus, B. cereus) and classes II-V from gram-negative bacteria) was “possess the ability to inhibit β-lactamase enzymes”, the “stability of the free acid” value ([4]; after its formation) was “rather unstable” and the “stability in aqueous solution” value ([4]; aqueous solution, dependence on pH) was “rather unstable in aqueous solution outside the pH range 5.5 to 8”.
With `O=C(O)[C@H]1/C(=C/CO)O[C@@H]2CC(=O)N21` [lithium clavulanate] the “pKa value of the corresponding acid” value ([1]; listed as lithium salt) was “about 2.3”, the solubility ([5]; 2.5 M aqueous LiCl) was 23500 µg/mL and the solubility ([5]; 3.75 M aqueous LiCl) was 10200 µg/mL. The solubility ([5]; 5.0 M aqueous LiCl) was 4100 µg/mL, the solubility ([5]; 6.25 M aqueous LiCl) was 1800 µg/mL and the solubility ([5]; 7.5 M aqueous LiCl) was 800 µg/mL.
For `O=C(O)[C@H]1/C(=C/CO)O[C@@H]2CC(=O)N21` [sodium salt, sodium clavulanate], the hygroscopicity ([6]; crystalline solid) was “hygroscopic” and the “water taken up at equilibrium” value ([6]; ground solid, atmospheric water at 18° C.) was “about 22 % (w/w)”.

Source: US4144242A, “Process for the purification of clavulanic acid” (Glaxo Laboratories Limited, priority 1975, dated 1979)
